# Test results as given in patent US6642227B2, “Inhibitors of c-Jun N-terminal kinases (JNK) and other protein kinases” (Vertex Pharmaceuticals Incorporated, priority 2001, dated 2003).
# Target: T1, activated JNK3 (Homo sapiens, UniProt P53779)
# T1 construct: One such construct encodes amino acid residues Ser40-Glu402 of JNK3α1 and is preceded by Met and Gly residues; Met-Gly dipeptide (initiator Met plus Gly added for the NcoI site) (N); made in house; host or cells: E. coli BL21 (DE3)
# Assay: JNK inhibition assay (spectrophotometric coupled-enzyme assay)
# Type: biochemical
# Conditions: activated JNK3 10 nM, 10 μM ATP, 30° C.; read-out: JNK3 Activity (Ki class A-C)
# Source text: A BLAST search of the EST database using the published JNK3α1 cDNA as a query identified an EST clone (#632588) that contained the entire coding sequence for human JNK3α1. Polymerase chain reactions (PCR) using pfu polymerase (Strategene) were used to introduce restriction sites into the cDNA for cloning into the pET-15B expression vector at the NcoI and BamHI sites. The protein was expressed in E. coli. Due to the poor solubility of the expressed full-length protein (Met 1-Gln 422), an N-terminally truncated protein starting at Ser residue at position 40 (Ser 40) was produced. This truncation corresponds to Ser 2 of JNK1 and JNK2 proteins, and is preceded by a methionine (initiation) and a glycine residue. The glycine residue was added in order to introduce an NcoI site for cloning into the expression vector. In addition, systematic C-terminal truncations were performed by PCR to identify a construct that give rise to diffraction-quality crystals. One such construct encodes amino acid residues Ser40-Glu402 of JNK3α1 and is preceded by Met and Gly residues.
# The construct was prepared by PCR using deoxyoligonucleotides: 5′ […] 3′ (forward primer with initiation codon underlined)(SEQ ID NO:1) and 5′ […] 3′ (reverse primer with stop codon underlined)(SEQ ID NO:2) as primers and was confirmed by DNA sequencing.
# E.coli strain BL21 (DE3) (Novagen) was transformed with the JNK3 expression construct and grown at 30° C. in LB supplemented with 100 μg/ml carbenicillin in shaker flasks until the cells were in log phase (OD600˜0.8). Isopropylthio-β-D-[…] (IPTG) was added to a final concentration of 0.8 mM and the cells were harvested 2 hours later by centrifugation.
# E. coli cell paste containing JNK3 was resuspended in 10 volumes/g lysis buffer (50 mM HEPES, pH 7.2, containing 10% glycerol (v/v), 100 mM NaCl, 2 mM DTT, 0.1 mM PMSF, 2 μg/ml Pepstatin, lug/ml each of E-64 and Leupeptin). Cells were lysed on ice using a microfluidizer and centrifuged at 100,000×g for 30 min at 4° C. The 100,000×g supernatant was diluted 1:5 with Buffer A (20 mM HEPES, pH 7.0, 10% glycerol (v/v), 2 mM DTT) and purified by SP-Sepharose (Pharmacia) cation-exchange chromatography (column dimensions: 2.6×20 cm) at 4° C. The resin was washed with 5 column volumes of Buffer A, followed by 5 column volumes of Buffer A containing 50 mM NaCl. Bound JNK3 was eluted with a 7.5 column volume linear gradient of 50-300 mM NaCl. JNK3 eluted between 150-200 mM NaCl.
# Five mg of JNK3 was diluted to 0.5 mg/ml in 50 mM HEPES buffer, pH 7.5, containing 100 mM NaCl, 5 mM DTT, 20 mM MgCl2 and 1 mM ATP. GST-MKK7(DD) was added at a molar ratio of 1:2.5 GST-MKK7:JNK3. After incubation for 30 minutes at 25° C., the reaction mixture was concentrated 5-fold by ultrafiltration in a Centriprep-30 (Amicon, Beverly, Mass.), diluted to 10 ml and an additional 1 mM ATP added. This procedure was repeated three times to remove ADP and replenish ATP. The final addition of ATP was 5 mM and the mixture incubated overnight at 4° C.
# The activated JNK3/GST-MKK7(DD) reaction mixture was exchanged into 50 mM HEPES buffer, pH 7.5, containing 5 mM DTT and 5% glycerol (w/v) by dialysis or ultrafiltration. The reaction mixture was adjusted to 1.1 M potassium phosphate, pH 7.5, and purified by hydrophobic interaction chromatography (at 25° C.) using a Rainin Hydropore column. […] Activated JNK3 (i.e. doubly phosphorylated JNK3) was stored at −70° C. at 0.25-1 mg/ml.
# Compounds were assayed for the inhibition of JNK3 by a spectrophotometric coupled-enzyme assay. In this assay, a fixed concentration of activated JNK3 (10 nM) was incubated with various concentrations of a potential inhibitor dissolved in DMSO for 10 minutes at 30° C. in a buffer containing 0.1 M HEPES buffer, pH 7.5, containing 10 mM MgCl2, 2.5 mM phosphoenolpyruvate, 200 μM NADH, 150 μg/mL pyruvate kinase, 50 μg/mL lactate dehydrogenase, and 200 μM EGF receptor peptide. […]
# T1 sequence (P53779 40-402): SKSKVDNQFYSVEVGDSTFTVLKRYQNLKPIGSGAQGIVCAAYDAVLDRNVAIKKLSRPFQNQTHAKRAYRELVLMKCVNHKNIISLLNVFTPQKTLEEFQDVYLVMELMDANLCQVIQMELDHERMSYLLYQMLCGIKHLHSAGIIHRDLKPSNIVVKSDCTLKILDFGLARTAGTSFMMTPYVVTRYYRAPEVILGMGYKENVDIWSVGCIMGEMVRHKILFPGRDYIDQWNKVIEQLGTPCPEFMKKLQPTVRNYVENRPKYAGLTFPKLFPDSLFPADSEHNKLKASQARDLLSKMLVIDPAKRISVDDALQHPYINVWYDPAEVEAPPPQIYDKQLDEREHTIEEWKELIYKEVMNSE
row,Ki,SMILES
1,< 100 nM,"CSc1sc(-c2ccnc(Nc3ccccc3)n2)c(-c2ccc(C)cc2)c1C#N [IIa-14, 2-Methylsulfanyl-5-(2-phenylamino-pyrimidin-4-yl)-4-p-tolyl-thiophene-3-carbonitrile]"
2,< 100 nM,"CCOc1sc(-c2ccnc(Nc3ccccc3)n2)c(-c2ccc(Cl)cc2)c1C#N [IIa-11, 2-Ethoxy-5-(2-phenylamino-pyrimidin-4-yl)-4-(4-chloro-phenyl)-thiophene-3-carbonitrile]"
3,< 100 nM,"CSc1sc(-c2ccnc(Nc3ccccc3)n2)c(-c2ccc(Cl)cc2)c1C#N [IIa-10, 2-Methylsulfanyl-5-(2-phenylamino-pyrimidin-4-yl)-4-(4-chloro-phenyl)-thiophene-3-carbonitrile]"
4,< 100 nM,"CCOc1sc(-c2ccnc(Nc3ccccc3)n2)c(-c2ccc(C)cc2)c1C#N [IIa-15, 2-Ethoxy-5-(2-phenylamino-pyrimidin-4-yl)-4-p-tolyl-thiophene-3-carbonitrile]"
